The values that follow come from ChEMBL document CHEMBL1137376 (J Med Chem, 2006).

Test [1] concerns the target T1, Angiotensin II receptor (AT-1) type-1 (Rattus norvegicus, UniProt P29089+P25095).
T1 sequence (P29089 whole entry): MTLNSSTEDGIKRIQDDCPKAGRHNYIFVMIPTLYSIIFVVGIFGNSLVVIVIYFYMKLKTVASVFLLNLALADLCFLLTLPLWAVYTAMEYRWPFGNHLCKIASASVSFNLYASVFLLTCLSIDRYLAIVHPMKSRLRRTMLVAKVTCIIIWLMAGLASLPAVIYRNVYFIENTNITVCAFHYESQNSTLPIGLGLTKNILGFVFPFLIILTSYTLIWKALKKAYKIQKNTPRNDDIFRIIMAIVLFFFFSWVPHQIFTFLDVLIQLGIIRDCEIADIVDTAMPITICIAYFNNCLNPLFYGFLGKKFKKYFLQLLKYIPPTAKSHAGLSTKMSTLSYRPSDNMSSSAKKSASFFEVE
T1 sequence (P25095 whole entry): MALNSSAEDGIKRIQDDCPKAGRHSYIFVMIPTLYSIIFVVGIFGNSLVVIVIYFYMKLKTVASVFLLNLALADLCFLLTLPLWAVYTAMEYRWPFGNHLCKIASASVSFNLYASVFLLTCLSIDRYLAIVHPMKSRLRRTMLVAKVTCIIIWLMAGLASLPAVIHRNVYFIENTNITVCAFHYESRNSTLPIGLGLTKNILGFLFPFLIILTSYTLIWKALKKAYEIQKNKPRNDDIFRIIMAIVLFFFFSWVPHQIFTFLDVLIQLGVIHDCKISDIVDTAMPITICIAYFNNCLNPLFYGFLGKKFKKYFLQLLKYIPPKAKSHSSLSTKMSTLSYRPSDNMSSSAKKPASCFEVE
In words: Displacement of [125I]Ang2 from AT1 receptor in rat liver membrane. It counts as cell membranes.

The target in test [2] is T2, Type-1 angiotensin II receptor (Oryctolagus cuniculus) (UniProt P34976).
T2 sequence (whole entry): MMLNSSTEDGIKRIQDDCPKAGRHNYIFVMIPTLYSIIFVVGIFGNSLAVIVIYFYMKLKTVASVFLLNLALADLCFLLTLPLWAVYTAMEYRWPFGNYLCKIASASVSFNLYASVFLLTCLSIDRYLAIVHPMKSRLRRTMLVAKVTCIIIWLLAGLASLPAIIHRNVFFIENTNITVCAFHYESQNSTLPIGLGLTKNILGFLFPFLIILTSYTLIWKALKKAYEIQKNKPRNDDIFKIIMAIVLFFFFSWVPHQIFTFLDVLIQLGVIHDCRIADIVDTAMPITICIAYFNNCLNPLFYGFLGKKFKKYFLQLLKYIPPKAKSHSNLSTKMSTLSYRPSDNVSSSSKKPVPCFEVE
Put plainly: Agonist activity at AT1 receptor measured as contraction of rabbit thoracic aorta at 3.0 nM to 3.0 uM. It is filed as functional, tissue-based.

Usually Ki stands for a measure of affinity in units of concentration, obtained from inhibition or displacement. A high value points to weaker binding.

Calls of active or inactive are those of the source. The calls are words filed in the database; no cut-off is given here. Non-standard residues stand in square brackets, D forms with d. Residues, ends and D or L forms follow the SMILES beside them. Phe(4-NH2) = Nc1ccc(C[C@H](N)C(=O)O)cc1

Regarding `CC[C@H](C)[C@@H]1Nc2c(Cc3ccc(O)cc3)cc(NC(=O)[C@@H](NC(=O)[C@H](CCCN=C(N)N)NC(=O)[C@@H](N)CC(=O)O)C(C)C)cc2CN(CC(=O)N[C@@H](Cc2c[nH]cn2)C(=O)N2CCC[C@H]2C(=O)N[C@@H](Cc2ccccc2)C(=O)O)C1=O`, the Ki in test [1] worked out at 0.0149 µM. The outcome in test [2] was inactive.

In turn, `CC[C@H](C)[C@@H]1Nc2c(Cc3ccc(O)cc3)cc(NC(=O)[C@H](CCCN=C(N)N)NC(=O)[C@@H](N)CC(=O)O)cc2CN(CC(=O)N[C@@H](Cc2c[nH]cn2)C(=O)N2CCC[C@H]2C(=O)N[C@@H](Cc2ccccc2)C(=O)O)C1=O` displayed a Ki in test [1] of 1.668 µM.

As to `CC[C@H](C)[C@@H]1Nc2c(Cc3ccc(O)cc3)cc(NC(=O)[C@H](CCCN=C(N)N)NC(=O)[C@@H](N)CC(=O)O)cc2CN(CC(=O)N2CCC[C@H]2C(=O)N[C@@H](Cc2ccccc2)C(=O)O)C1=O`, the Ki in test [1] came to 2.108 µM.

With `CC[C@H](C)[C@H](NC(=O)[C@H](Cc1ccc(O)cc1)NC(=O)[C@@H](NC(=O)[C@H](CCCN=C(N)N)NC(=O)[C@@H](N)CC(=O)O)C(C)C)C(=O)N[C@@H](Cc1ccc(N)cc1)C(=O)N1CCC[C@H]1C(=O)N[C@@H](Cc1ccccc1)C(=O)O` (H-DRVYI[Phe(4-NH2)]PF-OH), the Ki in test [1] was greater than 10 µM.
